Patent US6784184B2, “5-(arylsulfonyl)-,5-(arylsulfinyl), and 5-(arylsulfanyl)-thiazolidine-2,4-diones useful for inhibition of farnesyl-protein transferase” (Wyeth Holdings Corporation, priority 2001, dated 2004)

Tests used:
FPTase (K-Ras substrate) = FPTase (K-Ras substrate) (UniProt P29702+P49355); test: in vitro FTase Inhibition Assay, K-Ras as substrate for farnesylation; format: biochemical; conditions: K-Ras used as substrate for farnesylation
Description: (§1) The ability of the compounds of this invention to inhibit FPTase was evaluated in the standard pharmacological in vitro test procedures described below.
(§2) Methods—1. […] 2. Solution #1 is added to FPTase reaction in a volume of […]. 3. Standard reaction mix, […], contains 50 mM Tris (7.5), […], 3 mM MgCl2, 20 mM KCl, 5 mM DTT, 0.2% octyl-B-glucoside, 1% DMSO, […], 10 ng FPTase, and various concentrations of FPTase inhibitors. 4. Incubate for 30-90 min at […] 5. Stop reactions with TCA/SDS (6%/2%), hold at 4° C. for 45-60 min. 6. Filter by manifold or 96 well plate, wash filter 3-5× with TCA (6%). 7. Add scintillant to filters, measure ^3H-FPP incorporation into Ras protein.
(§3) (cpm from precipitated Ras with test compounds)−(background cpm)×100=% inhibition.
(§4) (cpm from precipitated Ras without test compounds)−(background cpm)

FPTase (H-Ras substrate) = FPTase (H-Ras substrate) (UniProt P29702+P49355); test: in vitro FTase Inhibition Assay, H-Ras as substrate for farnesylation; format: biochemical; conditions: H-Ras used as substrate for farnesylation
Description: as §1, §2, §3, §4

Row | SMILES | IC50 (FPTase (K-Ras substrate)) | IC50 (FPTase (H-Ras substrate))
1 | COc1ccc(S(=O)(=O)C2(CCCC#Cc3cc(NC(=O)OC(C)(C)C)ccc3C)SC(=O)NC2=O)cc1 (stereo not drawn) [Example 150, (3-{5-[5-(4-Methoxybenzenesulfonyl)-2,4-dioxothiazolidin-5-yl]pent-1-ynyl}-4-methylphenyl)carbamic Acid tert-Butyl Ester] | 16 to 68 nM | 7.4 to 32 nM
2 | O=C1NC(=O)C(CCCC#Cc2cccc([N+](=O)[O-])c2)(S(=O)(=O)c2ccc(Oc3ccccc3)cc2)S1 (stereo not drawn) [Example 119, 5-[5-(3-Nitrophenyl)pent-4-ynyl]-5-(4-phenoxybenzenesulfonyl)-thiazolidine-2,4-dione] | 1300 to 1700 nM | 130 to 140 nM
3 | COc1ccc(S(=O)(=O)C2(CCCC#Cc3ccc(NC(=O)OC(C)(C)C)cc3)SC(=O)NC2=O)cc1 (stereo not drawn) [Example 145, (4-{5-[5-(4-Methoxybenzensulfonyl)-2,4-dioxothiazolidin-5-yl]pent-1-ynyl}phenyl)carbamic Acid tert-Butyl Ester] | 5600 to 10000 nM | 1200 to 1700 nM
4 | O=C1NC(=O)C(CCCC#Cc2ccc(Cl)cc2)(S(=O)(=O)c2ccc(OCc3ccccc3)cc2)S1 (stereo not drawn) [Example 111, 5-(4-Benzyloxybenzenesulfonyl)-5-[5-(4-chlorophenyl)pent-4-ynyl]-thiazolidine-2,4-dione] | 300 to 550 nM | 110 to 150 nM
5 | O=C1NC(=O)C(CCCC#Cc2cc(Cl)ccc2Cl)(S(=O)(=O)c2ccc(I)cc2)S1 (stereo not drawn) [Example 115, 5-[5-(2,5-Dichloro-phenyl)pent-4-ynyl]-5-(4-iodobenzenesulfonyl)-thiazolidine-2,4-dione] | 160 to 230 nM | 12 to 320 nM

Now from value to compound:

Row | IC50 (FPTase (K-Ras substrate)) | IC50 (FPTase (H-Ras substrate)) | SMILES
6 | 100 to 700 nM | 6 to 20 nM | COc1ccc(S(=O)(=O)C2(CCCC#Cc3cc(NC(=O)OC(C)C)ccc3C)SC(=O)N(C(=O)OC(C)C)C2=O)cc1 (stereo not drawn) [Example 229, Isopropyl 5-(5-{5-[(isopropoxycarbonyl)-amino]-2-methylphenyl}pent-4-ynyl)-5-[(4-methoxyphenyl)sulfonyl]-2,4-dioxo-1,3-thiazolidine-3-carboxylate]
7 | 53 to 520 nM | 10 to 32 nM | COc1ccc(S(=O)(=O)C2(CCCC#Cc3cc(NC(=O)OCc4ccccc4)ccc3C)SC(=O)NC2=O)cc1 (stereo not drawn) [Example 175, (3-{5-[5-(4-Methoxybenzenesulfonyl)-2,4-dioxothiazolidin-5-yl]pent-1-ynyl}-4-methylphenyl)carbamic Acid Benzyl Ester]
8 | > 10000 nM | 650 nM | Cc1ccc(S(=O)(=O)C2(CCCC#Cc3ccc(S(C)(=O)=O)cc3)SC(=O)NC2=O)cc1 (stereo not drawn) [Example 159, 5-[5-(4-Methanesulfonylphenyl)-pent-4-ynyl]-5-(toluene-4-sulfonyl)-thiazolidine-2,4-dione]
9 | 8500 nM | 100 nM | Cc1ccc(S(=O)(=O)C2(CCC/C=C\c3ccc(Cl)cc3)SC(=O)NC2=O)cc1 (stereo not drawn) [Example 217, 5-[(4Z)-5-(4-Chloro-phenyl)pent-4-enyl]-5-(toluene-4-sulfonyl)-thiazolidine-2,4-dione]
10 | 33 nM | 3.3 nM | COc1ccc(S(=O)(=O)C2(CCCC#Cc3cc(NC(=O)OC(C)(C)C)ccc3C)SC(=O)NC2=O)cc1 (single isomer, unassigned; less polar) [Example 222, Enantiomer of(3-{5-[5-(4-Methoxybenzenesulfonyl)-2,4-dioxothiazolidin-5-yl]pent-1-ynyl}-4-methylphenyl)carbamic Acid tert-Butyl Ester (less polar)]
11 | 3300 nM | 200 nM | COc1ccc(S(=O)(=O)C2(CC#Cc3ccc(-c4ccccc4)cc3)SC(=O)NC2=O)cc1 (stereo not drawn) [Example 171, 5-(3-Biphenyl-4-yl-prop-2-ynyl)-5-(4-methoxybenzenesulfonyl)-thiazolidine-2,4-dione]
12 | 3000 nM | 90 nM | COc1ccc(S(=O)(=O)C2(CCCC#Cc3cccc(N)c3)SC(=O)NC2=O)cc1 (stereo not drawn) [Example 220, 5-[5-(3-Aminophenyl)pent-4-ynyl]-5-(4-methoxybenzenesulfonyl)-thiazolidine-2,4-dione]
